Among the data in EP4741401A1, “BENZOTHIAZOIMIDAZOLYL COMPOUND AND USE THEREOF” (ER Stress Research Institute, Inc., priority 2023, dated 2025) are IC50 values, retold here.

One test has as its system 293A cells. Kind of test: Cytoprotection under endoplasmic reticulum stress conditions (Tm-induced cell death). It counts as cell-based. The conditions noted are these: compound concentration inhibiting Tm-induced cell death by 50%, Tm 0.2 µg/mL, reporter cells. How it is done:
The reporter cells same as those used in Example 1 were placed in each well of a 96-well assay plate and were treated with Tm at a final concentration of 0.2 µg/mL and the test compound. […]

Test [1] has as its system endoplasmic reticulum stress response induced by Tm. As to the kind of experiment: Suppression of endoplasmic reticulum stress response (ERSE2-UPRE-AARE-EGFP reporter fluorescence). The conditions noted are these: 293A reporter cells, incubated at 37°C overnight, read-out: Suppression rank of endoplasmic reticulum stress response. Type of test: cell-based. As for the experimental part: A solution of the compound synthesized in "(1) Synthesis of benzothiazoimidazolyl compound" was appropriately diluted with a DMEM solution containing 10% fetal bovine serum (FBS), and the diluted solution was added to a 384-well assay plate at 10 µL/well. Next, 30 µL of a culture medium containing the reporter cells and 10 µL of the Tm solution were mixed, and the mixture was added to the 384-well assay plate at 40 µL/well such that the cell density was 18 × 10^3 cells/well, and the whole was incubated at 37°C overnight.
A multi-plate reader Citation 3 (Bio-Tek) was used to determine the EGFP fluorescence intensity (excitation wavelength: 485 nm, fluorescence wavelength: 528 nm) when the test compound was added. A smaller fluorescence intensity indicates more suppression of the increase in activity of the endoplasmic reticulum stress marker induced by Tm.
A "control" containing the Tm solution and, in place of the test compound solution, an equal volume of DMSO was subjected to the measurement of fluorescence intensity in a similar manner. In addition, a "background" containing a solution prepared in the same manner as for the Tm solution except that no Tm was added and containing, in place of the test compound solution, an equal volume of DMSO was subjected to the measurement of fluorescence intensity in a similar manner.
The fluorescence intensity was determined while the concentration of the test compound was varied, and the 50% effective concentration (IC50) of suppressing the endoplasmic reticulum stress response induced by Tm was calculated.

In the case of `CS(=O)(=O)c1ccc2c(c1)sc1nc(-c3ccc(C(F)(F)F)cc3)cn12` [IBT-31, 7-(methylsulfonyl)-2-(4-(trifluoromethyl)phenyl)benzo[d]imidazo[2,1-b]thiazole], the figures for the IC50 (in the test on 293A cells; in test [1]) were 0.01 µM and at most 0.01 µM, respectively.

`CS(=O)(=O)c1ccc2c(c1)sc1nc(-c3ccc(Cl)c(Cl)c3)cn12` [IBT-32, 2-(3,4-dichlorophenyl)-7-(methylsulfonyl)benzo[d]imidazo[2,1-b]thiazole]: the IC50 in the test with 293A cells was 0.02 µM; in test [1], 0.01 to 0.1 µM.

As to `COc1cccc(-c2cn3c(n2)sc2cc(S(C)(=O)=O)ccc23)c1` [IBT-33, 2-(3-methoxyphenyl)-7-(methylsulfonyl)benzo[d]imidazo[2,1-b]thiazole], the IC50 in the test on 293A cells is 0.07 µM; in test [1] it was 0.01 to 0.1 µM.

Turning to `CS(=O)(=O)c1ccc2c(c1)sc1nc(-c3ccc(F)cc3)cn12` [IBT-34, 2-(4-fluorophenyl)-7-(methylsulfonyl)benzo[d]imidazo[2,1-b]thiazole], the IC50 is 0.08 µM in the test on 293A cells and 0.01 to 0.1 µM in test [1].

On to `CNC(=O)CCc1ccc2c(c1)sc1nc(-c3ccc(Cl)cc3)cn12` [IBT-35, 3-(2-(4-chlorophenyl)benzo[d]imidazo[2,1-b]thiazol-7-yl)-N-methylpropanamide], for which the IC50 with 293A cells was 0.04 µM; in test [1], 0.01 to 0.1 µM.

With `COc1cc(-c2cn3c(n2)sc2cc(S(C)(=O)=O)ccc23)ccc1Cl` [IBT-36, 2-(4-chloro-3-methoxyphenyl)-7-(methylsulfonyl)benzo[d]imidazo[2,1-b]thiazole], the IC50 with 293A cells is 0.01 µM; in test [1], at most 0.01 µM.

Turning to `CNC(=O)CCc1ccc2c(c1)sc1nc(-c3ccc(C(F)(F)F)cc3)cn12` [IBT-37, N-methyl-3-(2-(4-(trifluoromethyl)phenyl)benzo[d]imidazo[2,1-b]thiazol-7-yl)propanamide], the IC50 with 293A cells was 0.03 µM; in test [1], 0.01 to 0.1 µM.

Turning to `CNC(=O)CCCS(=O)(=O)c1ccc2c(c1)sc1nc(-c3ccc(C(F)(F)F)cc3)cn12` [IBT-38, N-methyl-4-((2-(4-(trifluoromethyl)phenyl)benzo[d]imidazo[2,1-b]thiazol-7-yl)sulfonyl)butanamide], the IC50 in the test with 293A cells was 0.09 µM; in test [1], 0.01 to 0.1 µM.

As for `CCN(CC)C(=O)CCc1ccc2c(c1)sc1nc(-c3ccc(C(F)(F)F)cc3)cn12` [IBT-39, N,N-diethyl-3-(2-(4-(trifluoromethyl)phenyl)benzo[d]imidazo[2,1-b]thiazol-7-yl)propanamide], the IC50 in the test on 293A cells was 0.08 µM; in test [1], 0.01 to 0.1 µM.

As to `FC(F)(F)c1ccc(-c2cn3c(n2)sc2ccccc23)cc1` [IBT-40, 2-(4-(trifluoromethyl)phenyl)benzo[d]imidazo[2,1-b]thiazole], the IC50 with 293A cells was 0.1 µM; in test [1], 0.01 to 0.1 µM.

Take `C#CCOc1ccc(-c2cn3c(n2)sc2cc(S(C)(=O)=O)ccc23)cc1` [IBT-41, 7-(methylsulfonyl)-2-(4-(prop-2-yn-1-yloxy)phenyl)benzo[d]imidazo[2,1-b]thiazole 2,2,2-trifluoroacetate]: the results for the IC50 (in the test with 293A cells; in test [1]) were 0.09 µM and 0.01 to 0.1 µM, respectively.

Turning to `COc1ccc(-c2cn3c(n2)sc2cc(S(C)(=O)=O)ccc23)cc1` [IBT-43, 2-(4-methoxyphenyl)-7-(methylsulfonyl)benzo[d]imidazo[2,1-b] thiazole], the IC50 in the test with 293A cells is 0.17 µM; in test [1], 0.1 to 1 µM.

Turning to `CS(=O)(=O)c1ccc2c(c1)sc1nc(-c3ccc(Cl)cc3Cl)cn12` [IBT-44, 2-(2,4-dichlorophenyl)-7-(methylsulfonyl)benzo[d]imidazo[2,1-b]thiazole], the IC50 was 0.45 µM in the test with 293A cells and 0.1 to 1 µM in test [1].

On to `CCOC(=O)c1ccc2c(c1)sc1nc(-c3ccc(Cl)cc3)cn12` [IBT-45, ethyl 2-(4-chlorophenyl)benzo[d]imidazo[2,1-b]thiazole-7-carboxylate], for which the values for the IC50 (in the test with 293A cells; in test [1]) were 0.35 µM and 0.1 to 1 µM, respectively.

On to `CCOc1ccc2c(c1)sc1nc(-c3ccc(Cl)cc3)cn12` [IBT-46, 2-(4-chlorophenyl)-7-ethoxybenzo[d]imidazo[2,1-b]thiazole], for which the IC50 was 0.56 µM in the test with 293A cells and 0.1 to 1 µM in test [1].

Regarding `COc1cccc2sc3nc(-c4ccc(Cl)cc4)cn3c12` [IBT-51, 2-(4-chlorophenyl)-5-methoxybenzo[d]imidazo[2,1-b]thiazole], the IC50 with 293A cells is 7.72 µM; in test [1], over 1 µM.

Consider `CNC(=O)CCCNS(=O)(=O)c1ccc2c(c1)sc1nc(-c3ccc(C(F)(F)F)cc3)cn12` [IBT-52, N-methyl-4-((2-(4-(trifluoromethyl)phenyl)benzo[d]imidazo[2,1-b]thiazole)-7-sulfonamido)butanamide], for which the IC50 in the test on 293A cells was 0.42 µM; in test [1] it was 0.1 to 1 µM.

In the case of `CC(C)(C)OC(=O)NCCOCCNC(=O)CCc1ccc2c(c1)sc1nc(-c3ccc(C(F)(F)F)cc3)cn12` [IBT-53, tert-butyl (2-(2-(3-(2-(4-(trifluoromethyl)phenyl)benzo[d]imidazo[2,1-b]thiazol-7-yl)propanamido)ethoxy)ethyl)carbamate], the IC50 was 4.47 µM in the test with 293A cells and over 1 µM in test [1].

Take `CCN(CC)C(=O)CCCS(=O)(=O)c1ccc2c(c1)sc1nc(-c3ccc(C(F)(F)F)cc3)cn12` [IBT-55, N,N-diethyl-4-((2-(4-(trifluoromethyl)phenyl)benzo[d]imidazo[2,1-b]thiazol-7-yl)sulfonyl)butanamide]: the IC50 was 0.66 µM with 293A cells and 0.1 to 1 µM in test [1].

Consider `C#CCOc1cc(-c2cn3c(n2)sc2cc(S(C)(=O)=O)ccc23)ccc1Cl` [IBT-56, 2-(4-chloro-3-(prop-2-yn-1-yloxy)phenyl)-7-(methylsulfonyl)benzo[d]imidazo[2,1-b]thiazole], for which the IC50 was 0.56 µM with 293A cells and 0.1 to 1 µM in test [1].

Take `C#CCNC(=O)CCc1ccc2c(c1)sc1nc(-c3ccc(C(F)(F)F)cc3)cn12` [IBT-57]: the IC50 in the test with 293A cells was 3.8 µM; in test [1], over 1 µM.

As for `CC(C)(C)OC(=O)NCCCOc1cc(-c2cn3c(n2)sc2cc(S(C)(=O)=O)ccc23)ccc1Cl` [IBT-58, tert-butyl (3-(2-chloro-5-(7-(methylsulfonyl)benzo[d]imidazo[2,1-b]thiazol-2-yl)phenoxy)propyl)carbamate], the IC50 in the test on 293A cells was 3.2 µM; in test [1], over 1 µM.

In the case of `OCc1ccc2c(c1)sc1nc(-c3ccc(Cl)cc3)cn12` [IBT-59, (2-(4-chlorophenyl)benzo[d]imidazo[2,1-b]thiazol-7-yl)methanol], the IC50 is 0.41 µM in the test on 293A cells and 0.1 to 1 µM in test [1].

With `C#CCOCc1ccc2c(c1)sc1nc(-c3ccc(Cl)cc3)cn12` [IBT-60, 2-(4-chlorophenyl)-7-((prop-2-yn-1-yloxy)methyl)benzo[d]imidazo[2,1-b]thiazole 2,2,2-trifluoroacetate], the IC50 in the test with 293A cells is 0.9 µM; in test [1] it was 0.1 to 1 µM.

In the case of `C#CCCC1(CCNC(=O)CCc2ccc3c(c2)sc2nc(-c4ccc(C(F)(F)F)cc4)cn23)N=N1` [IBT-61, N-(2-(3-(but-3-yn-1-yl)-3H-diazirin-3-yl)ethyl)-3-(2-(4-(trifluoromethyl)phenyl)benzo[d]imidazo[2,1-b]thiazol-7-yl)propanamide], the results for the IC50 (in the test with 293A cells; in test [1]) were 4.16 µM and over 1 µM, respectively.
